The experiment has as its target GLP-1R (Homo sapiens, UniProt P43220). The experiment is described as follows: GLP-1R Activation - cAMP Assay. The note with it: cAMP increase in CHO cells stably expressing GLP-1R; each compound run on one of the two cAMP assays (Assay 1 or Assay 2, not specified). Type of experiment: cell-based. In a few lines: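 cAMP rise read by HTRF after 30 min agonist exposure (10-point titration, 37 °C) in HBSS/20 mM Hepes/0.1% BSA, following 1 h pre-incubation. Cells: stable GLP-1R CHO line, 1,000/well, seeded overnight. Sigmoidal fit of response vs log concentration gives EC50.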
A general note: cAMP levels reflect the balance of adenylyl cyclase and phosphodiesterase activity.

Sequence of GLP-1R (P43220 24-463): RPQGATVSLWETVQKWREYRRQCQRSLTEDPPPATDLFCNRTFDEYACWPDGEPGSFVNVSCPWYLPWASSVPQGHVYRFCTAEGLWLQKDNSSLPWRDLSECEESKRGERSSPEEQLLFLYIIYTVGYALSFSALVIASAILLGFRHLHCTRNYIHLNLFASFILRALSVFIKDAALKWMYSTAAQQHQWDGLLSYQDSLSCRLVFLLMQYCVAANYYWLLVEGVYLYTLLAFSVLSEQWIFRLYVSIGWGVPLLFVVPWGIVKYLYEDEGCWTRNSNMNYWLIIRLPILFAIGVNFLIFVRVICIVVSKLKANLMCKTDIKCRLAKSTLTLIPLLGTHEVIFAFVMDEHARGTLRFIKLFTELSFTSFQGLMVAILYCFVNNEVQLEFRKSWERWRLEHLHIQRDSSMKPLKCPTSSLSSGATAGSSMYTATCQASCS

For orientation: EC50 means the midpoint of the concentration-response curve. Lower therefore signals higher potency in that assay. Take `CC1(C)COC[C@H]1n1c(Cc2cc(F)c(-c3cccc(OCc4ccc(C#N)cc4)n3)cc2F)nc2cc(Cl)c(C(=O)O)cc21` [Example 397, (S)-5-chloro-2-(4-(6-((4-cyanobenzyl)oxy)pyridin-2-yl)-2,5-difluorobenzyl)-1-(4,4-dimethyltetrahydrofuran-3-yl)-1H-benzo[d]imidazole-6-carboxylic Acid]: the EC50 was 546 pM. Regarding `CC1(C)COC[C@H]1n1c(Cc2cc(F)c(-c3ccc(Cl)c(OCc4ccc(C#N)cc4)n3)cc2F)nc2ccc(C(=O)O)cc21` [Example 432, (S)-2-(4-(5-chloro-6-((4-cyanobenzyl)oxy)pyridin-2-yl)-2,5-difluorobenzyl)-1-(4,4-dimethyltetrahydrofuran-3-yl)-1H-benzo[d]imidazole-6-carboxylic acid], the EC50 amounted to 114 pM. `Cc1cc(Cc2nc3c(F)cc(C(=O)O)cc3n2C[C@@H]2CCO2)c(Cl)cc1-c1cccc(OCc2ccc(C#N)cc2F)n1` [Example 143, (S)-2-(2-chloro-4-(6-((4-cyano-2-fluorobenzyl)oxy)pyridin-2-yl)-5-methylbenzyl)-4-fluoro-1-(oxetan-2-ylmethyl)-1H-benzo[d]imidazole-6-carboxylic Acid] gave an EC50 of 614 pM. In turn, `Cc1ccc(COc2cccc(-c3cc(F)c(Cc4nc5ccc(C(=O)O)cc5n4[C@@H]4COCC4(C)C)cc3F)n2)c(F)n1` [Example 252, (S)-2-(2,5-difluoro-4-(6-((2-fluoro-6-methylpyridin-3-yl)methoxy)pyridin-2-yl)benzyl)-1-(4,4-dimethyltetrahydrofuran-3-yl)-1H-benzo[d]imidazole-6-carboxylic acid] yielded an EC50 of 59 pM. As to `CC1(C)COC[C@H]1n1c(Cc2cc(F)c(-c3cccc(OCc4ccc(Cl)cc4F)c3)cc2F)nc2ccc(C(=O)O)cc21` [Example 508, (S)-2-((3′-((4-chloro-2-fluorobenzyl)oxy)-2,5-difluoro-[1,1′-biphenyl]-4-yl)methyl)-1-(4,4-dimethyltetrahydrofuran-3-yl)-1H-benzo[d]imidazole-6-carboxylic acid], the EC50 was 302 pM. `CC1(C)COC[C@H]1n1c(Cc2cc(F)c(-c3cccc(OCc4ccc(C#N)cc4)n3)cc2F)nc2cc(O)c(C(=O)O)cc21` [Example 401, (S)-2-(4-(6-((4-cyanobenzyl)oxy)pyridin-2-yl)-2,5-difluorobenzyl)-1-(4,4-dimethyltetrahydrofuran-3-yl)-5-hydroxy-1H-benzo[d]imidazole-6-carboxylic acid] yielded a half-maximal effective concentration (EC50) of 247 pM. The value for `COc1cc(Cl)ncc1COc1nc(-c2cc(F)c(Cc3nc4ccc(C(=O)O)cc4n3[C@@H]3COCC3(C)C)c(F)c2F)ccc1F` [Example 341, (S)-2-(4-(6-((6-chloro-4-methoxypyridin-3-yl)methoxy)-5-fluoropyridin-2-yl)-2,3,6-trifluorobenzyl)-1-(4,4-dimethyltetrahydrofuran-3-yl)-1H-benzo[d]imidazole-6-carboxylic acid] was 24 pM; that for `N#Cc1ccc(COc2cccc(-c3cc(F)c(Cc4nc5ccc(C(=O)O)cc5n4C4COC[C@H]4CO)cc3F)n2)c(F)c1` (mixture of isomers) [Example 217, 2-(4-(6-((4-cyano-2-fluorobenzyl)oxy)pyridin-2-yl)-2,5-difluorobenzyl)-1-((3S,4R)-4-(hydroxymethyl)tetrahydrofuran-3-yl)-1H-benzo[d]imidazole-6-carboxylic acid] was 1110 pM; that for `C[C@H]1COC[C@H]1n1c(Cc2cc(F)c(-c3ccnc(OCc4ccc(Cl)cc4F)n3)cc2F)nc2ccc(C(=O)O)cc21` [Example 484, 2-(4-(2-((4-chloro-2-fluorobenzyl)oxy)pyrimidin-4-yl)-2,5-difluorobenzyl)-1-((3S,4R)-4-methyltetrahydrofuran-3-yl)-1H-benzo[d]imidazole-6-carboxylic acid] was 155 pM. On to `CC1(C)COCC1n1c(Cc2cc(F)c(-c3ccnc(OCc4ccc(Cl)cc4F)n3)cc2Cl)nc2c(F)cc(C(=O)O)cc21` (stereo not drawn) [Example 343, 2-(2-chloro-4-(2-((4-chloro-2-fluorobenzyl)oxy)pyrimidin-4-yl)-5-fluorobenzyl)-1-(4,4-dimethyltetrahydrofuran-3-yl)-4-fluoro-1H-benzo[d]imidazole-6-carboxylic acid], for which the EC50 is 113 pM. For the compound `CC1(C)COC[C@@H]1n1c(Cc2cc(F)c(-c3cccc(OCc4ccc(C#N)cc4F)n3)cc2F)nc2c(F)cc(C(=O)O)cc21` [Example 11, (R)-2-(4-(6-((4-cyano-2-fluorobenzyl)oxy)pyridin-2-yl)-2,5-difluorobenzyl)-1-(4,4-dimethyltetrahydrofuran-3-yl)-4-fluoro-1H-benzo[d]imidazole-6-carboxylic Acid], the midpoint of the response, the EC50, lay at 260 pM.

In the case of `N#Cc1ccc(COc2cccc(-c3cc(F)c(Cc4nc5ccc(C(=O)O)cc5n4[C@H]4CCOC4)cc3F)n2)c(F)c1` [Example 1, (S)-2-(4-(6-((4-cyano-2-fluorobenzyl)oxy)pyridin-2-yl)-2,5-difluorobenzyl)-1-(tetrahydrofuran-3-yl)-1H-benzo[d]imidazole-6-carboxylic acid], the midpoint of the response, the EC50, lay at 1120 pM. Turning to `COCCn1c(Cc2cc(F)c(-c3cccc(OCc4ccc(-n5ccnn5)nc4)n3)cc2Cl)nc2c(F)cc(C(=O)O)cc21` [Example 350, 2-(4-(6-((6-(1H-1,2,3-triazol-1-yl)pyridin-3-yl)methoxy)pyridin-2-yl)-2-chloro-5-fluorobenzyl)-4-fluoro-1-(2-methoxyethyl)-1H-benzo[d]imidazole-6-carboxylic acid], the EC50 worked out at 171 pM. `CC1(C)COC[C@H]1n1c(Cc2cc(F)c(-c3ccnc(OCc4ccc(Cl)cc4Cl)n3)cc2F)nc2c(F)cc(C(=O)O)cc21` [Example 404, (S)-2-(4-(2-((2,4-dichlorobenzyl)oxy)pyrimidin-4-yl)-2,5-difluorobenzyl)-1-(4,4-dimethyltetrahydrofuran-3-yl)-4-fluoro-1H-benzo[d]imidazole-6-carboxylic acid] returned an EC50 of 68 pM. As to `Cc1cc(Cc2nc3c(F)cc(C(=O)O)cc3n2[C@@H]2COCC2(C)C)c(F)cc1-c1ccc(F)c(OCc2ccc(C#N)cc2F)n1` [Example 207, (S)-2-(4-(6-((4-cyano-2-fluorobenzyl)oxy)-5-fluoropyridin-2-yl)-2-fluoro-5-methylbenzyl)-1-(4,4-dimethyltetrahydrofuran-3-yl)-4-fluoro-1H-benzo[d]imidazole-6-carboxylic acid], the concentration for a half-maximal effect (EC50) came to 168 pM.

`COCCn1c(Cc2cc(F)c(-c3cccc(OCc4cnc(-c5cnn(C(F)F)c5)cn4)n3)cc2F)nc2ccc(C(=O)O)cc21` [Example 36] registered an EC50 of 1040 pM. As for `N#Cc1ccc(COc2cccc(-c3cc(F)c(Cc4nc5ccc(C(=O)O)cc5n4[C@@H]4COC[C@@H]4OCC(F)F)cc3F)n2)c(F)c1` [Example 540, 2-(4-(6-((4-cyano-2-fluorobenzyl)oxy)pyridin-2-yl)-2,5-difluorobenzyl)-1-((3R,4R)-4-(2,2-difluoroethoxy)tetrahydrofuran-3-yl)-1H-benzo[d]imidazole-6-carboxylic acid], the EC50 amounted to 52 pM.

As for `COCCn1c(Cc2cc(F)c(-c3cccc(OCc4ccc(-c5cnn(C(F)(F)F)c5)cc4F)n3)cc2F)nc2ccc(C(=O)O)cc21` [Example 7, 2-(2,5-difluoro-4-(6-((2-fluoro-4-(1-(trifluoromethyl)-1H-pyrazol-4-yl)benzyl)oxy)pyridin-2-yl)benzyl)-1-(2-methoxyethyl)-1H-benzo[d]imidazole-6-carboxylic acid], the EC50 was determined as 600 pM. Take `CC1(C)COCC1n1c(Cc2cc(F)c(-c3cccc(OCc4cnc(-n5ccnc5)cc4Cl)n3)cc2F)nc2c(F)cc(C(=O)O)cc21` (stereo not drawn) [Example 174, 2-(4-(6-((4-chloro-6-(1H-imidazol-1-yl)pyridin-3-yl)methoxy)pyridin-2-yl)-2,5-difluorobenzyl)-1-(4,4-dimethyltetrahydrofuran-3-yl)-4-fluoro-1H-benzo[d]imidazole-6-carboxylic Acid]: a half-maximal effect (EC50) was put at 51 pM. The value for `COCCn1c(Cc2c(F)cc(-c3cccc(OCc4ccc(-n5ccnn5)cc4F)n3)c(F)c2F)nc2c(F)cc(C(=O)O)cc21` [Example 250, 4-fluoro-1-(2-methoxyethyl)-2-(2,3,6-trifluoro-4-(6-((2-fluoro-4-(1H-1,2,3-triazol-1-yl)benzyl)oxy)pyridin-2-yl)benzyl)-1H-benzo[d]imidazole-6-carboxylic acid] was 48 pM; that for `COC(=O)N1Cc2ccc(COc3nc(-c4cc(F)c(Cc5nc6ccc(C(=O)O)cc6n5C[C@@H]5CCO5)cc4F)ccc3F)cc2C1` [Example 516, (S)-2-(2,5-difluoro-4-(5-fluoro-6-((2-(methoxycarbonyl)isoindolin-5-yl)methoxy)pyridin-2-yl)benzyl)-1-(oxetan-2-ylmethyl)-1H-benzo[d]imidazole-6-carboxylic acid] was 88 pM. `Cc1cc(Cc2nc3ccc(C(=O)O)cc3n2[C@@H]2COCC2(C)C)c(F)cc1-c1cccc(OCc2ccc(C#N)cc2F)n1` [Example 278, (S)-2-(4-(6-((4-cyano-2-fluorobenzyl)oxy)pyridin-2-yl)-2-fluoro-5-methylbenzyl)-1-(4,4-dimethyltetrahydrofuran-3-yl)-1H-benzo[d]imidazole-6-carboxylic acid]: the EC50 amounted to 85 pM. With `CC1(C)COC[C@H]1n1c(Cc2cc(F)c(-c3cccc(OCc4ccc(C(F)F)cc4)n3)cc2F)nc2ccc(C(=O)O)cc21` [Example 357, (S)-2-(4-(6-((4-(difluoromethyl)benzyl)oxy)pyridin-2-yl)-2,5-difluorobenzyl)-1-(4,4-dimethyltetrahydrofuran-3-yl)-1H-benzo[d]imidazole-6-carboxylic acid] the figure was 171 pM; with `CC1(C)COC[C@H]1n1c(Cc2cc(F)c(-c3cccc(OCc4ccc(Cl)cc4F)n3)cc2F)nc2cc(O)c(C(=O)O)cc21` [Example 400, (S)-2-(4-(6-((4-chloro-2-fluorobenzyl)oxy)pyridin-2-yl)-2,5-difluorobenzyl)-1-(4,4-dimethyltetrahydrofuran-3-yl)-5-hydroxy-1H-benzo[d]imidazole-6-carboxylic acid], 440 pM.

Values taken from US12570642B2, “GLP-IR modulating compounds” (Gilead Sciences, Inc., priority 2021, dated 2026).
